Laboratory results: patent US11951214B2, “Capsule formulations” (CHEMOCENTRYX, INC., priority 2018, dated 2024)
≈ marks a conversion by molar mass, not a printed value. Read-outs that look alike come from different tables or passages of the source.

What was measured:
[1] = Pharmacokinetics of solid solution capsules in dogs; settings: male, beagle, dog, in vivo, po, 20 mg, PO 20 mg/dog
Description: Solid Solution capsules of Compound 1 comprising 50:50 macrogol-40-glycerol hydroxystearate:PEG-4000 or 100% macrogol-40-glycerol hydroxystearate were prepared using the general procedures described in Example 4. The PEG heating steps were omitted for the 100% macrogol-40 glycerol hydroxystearate formulations. These formulations were dosed in beagle dogs (male) at 20 mg per dog to evaluate the pharmacokinetic profile. The results are summarized in Table 11 (below, and shown in FIG. 8 (50:50 macrogol-40-glycerol hydroxystearate:PEG-4000 and FIG. 9 (100% macrogol-40-glycerol hydroxystearate).

[2] = Food effect study (high fat, high calorie meal) in healthy volunteers; type: in vivo, human; settings: for Tmax / AUC(0-inf) / AUC(0-t) / Cmax: human, plasma, 30 mg; for AUC(0-inf): read-out: AUC0-inf, Geometric LSM; for AUC(0-t): read-out: AUC0-t, Geometric LSM; for Cmax: read-out: Cmax, Geometric LSM
Description: An open-label study in 16 healthy volunteers to evaluate the pharmacokinetic effect of a high fat (˜50% of total caloric content of the meal), high calorie meal on the solid solution capsule of Compound 1 in a 50:50 mixture of macrogol-40-glycerol hydroxystearate:PEG-4000. Subjects received a single oral dose of 30 mg Compound 1, given in the fed or fasted state. Blood samples were collected for measurement of Compound 1 plasma concentrations.

[3] = Solubility of Compound 1 in alternative excipients/solvents (liquid formulations, cranberry juice dilution); type: physicochemical
Description: Liquid formulations of PEG400/EtOH and Compound 1 can be prepared using general methods for making liquid formulations known in the art. For example, Compound 1 was dissolved in EtOH with agitation and ambient temperature, then the desired amount of PEG400 was added to achieve the desired ratios.
The liquid formulations of the present example are prepared as described in Example 2. When additional excipients are included, they are added after dissolution of Compound 1 in ethanol.

[4] = Pharmacokinetics of solid solution capsule in patients with ANCA associated vasculitis; type: in vivo, Humans; settings: for Days 57-85 Cmin, Mean / AUC(0-t) / Cmax / Tmax: 30 mg twice daily oral, 50:50 solid solution capsules; for AUC(0-t) / Cmax / Tmax: human, in vivo, po; for AUC(0-t): read-out: Day 1 AUC0-6hr, Mean; for Cmax: read-out: Day 1 Cmax, Mean; for Tmax: read-out: Day 1 Tmax, Mean
Description: Solid Solution capsules of Compound 1 comprising 50:50 macrogol-40-glycerol hydroxystearate:PEG-4000 were prepared using the general procedures described in Example 4.
Patients with AAV were randomized and double-blind in placebo-controlled clinical trial conducted in a step-wise manner to evaluate the efficacy and safety of Compound 1 formulated in a solid solution as described above with reduced or no prednisone in comparison with the standard of care full dose prednisone. All patients received either cyclophosphamide (CYC) or rituximab (RTX) intravenously. 22 subjects received 30 mg of Compound 1 as described above b.i.d. for 84 days and no prednisone (prednisone-matching placebo), 22 subjects received 30 mg Compound 1 as described above b.i.d. for 84 days plus a reduced starting dose (i.e., 20 mg/day) of prednisone, and 23 subjects received Compound 1 as described above—matching placebo b.i.d. for 84 days plus a full starting dose of prednisone (i.e., 60 mg/day). All subjects received IV cyclophosphamide or rituximab.

[5] = capsule in 50:50 macrogol-40-glycerol hydroxystearate:PEG-4000, Average of T1-T3
[6] = capsule in 50:50 macrogol-40-glycerol hydroxystearate:PEG-4000, trial T1
[7] = capsule in 50:50 macrogol-40-glycerol hydroxystearate:PEG-4000, trial T2
[8] = capsule in 50:50 macrogol-40-glycerol hydroxystearate:PEG-4000, trial T3
[9] = capsule in 100% macrogol-40-glycerol hydroxystearate, Average of T1-T3
[10] = capsule in 100% macrogol-40-glycerol hydroxystearate, trial T1
[11] = capsule in 100% macrogol-40-glycerol hydroxystearate, trial T2
[12] = capsule in 100% macrogol-40-glycerol hydroxystearate, trial T3
[13] = healthy volunteers, 30 mg single oral dose, 100 × (test/reference)
[14] = high fat, high calorie meal with 30 mg Compound 1
[15] = po, healthy volunteers, 30 mg single oral dose, 50:50 solid solution capsule, Fasted
[16] = po, healthy volunteers, 30 mg single oral dose, 50:50 solid solution capsule, Fed (high fat, high calorie meal)
[17] = AAV patients, Compound 1 + Low Dose Prednisone
[18] = 30 mg, AAV patients, Compound 1 + No Prednisone
[19] = 30 mg, AAV patients, Compound 1 with or without Prednisone

SMILES: Cc1ccc(NC(=O)[C@H]2CCCN(C(=O)c3c(C)cccc3F)[C@H]2c2ccc(NC3CCCC3)cc2)cc1C(F)(F)F [Compound 1, (2R,3 S)-2-(4-(cyclopentylamino)phenyl)-1-(2-fluoro-6-methylbenzoyl)-N-(4-methyl-3-(trifluoromethyl)phenyl)piperidine-3-carboxamide]
- AUC(0-inf) [1, 5]: 1630 ng·h/mL
- AUC(0-t) [1, 5]: 1580 ng·h/mL
- Cmax [1, 5]: 429 ng/mL
- MRT [1, 5]: 4.7 h
- Tmax [1, 5]: 1.3 h
- AUC(0-inf) [1, 6]: 1310 ng·h/mL
- AUC(0-t) [1, 6]: 1260 ng·h/mL
- Cmax [1, 6]: 411 ng/mL
- MRT [1, 6]: 4.8 h
- Tmax [1, 6]: 1 h
- AUC(0-inf) [1, 7]: 1440 ng·h/mL
- AUC(0-t) [1, 7]: 1390 ng·h/mL
- Cmax [1, 7]: 396 ng/mL
- MRT [1, 7]: 4.5 h
- Tmax [1, 7]: 1 h
- AUC(0-inf) [1, 8]: 2150 ng·h/mL
- AUC(0-t) [1, 8]: 2080 ng·h/mL
- Cmax [1, 8]: 481 ng/mL
- MRT [1, 8]: 4.8 h
- Tmax [1, 8]: 2 h
- AUC(0-inf) [1, 9]: 2440 ng·h/mL
- AUC(0-t) [1, 9]: 2370 ng·h/mL
- Cmax [1, 9]: 607 ng/mL
- MRT [1, 9]: 4.8 h
- Tmax [1, 9]: 2.3 h
- AUC(0-inf) [1, 10]: 2660 ng·h/mL
- AUC(0-t) [1, 10]: 2470 ng·h/mL
- Cmax [1, 10]: 590 ng/mL
- MRT [1, 10]: 7.1 h
- Tmax [1, 10]: 2 h
- AUC(0-inf) [1, 11]: 3020 ng·h/mL
- AUC(0-t) [1, 11]: 3000 ng·h/mL
- Cmax [1, 11]: 604 ng/mL
- MRT [1, 11]: 4.2 h
- Tmax [1, 11]: 4 h
- AUC(0-inf) [1, 12]: 1660 ng·h/mL
- AUC(0-t) [1, 12]: 1650 ng·h/mL
- Cmax [1, 12]: 628 ng/mL
- MRT [1, 12]: 3.2 h
- Tmax [1, 12]: 1 h
- AUC0-inf, GMR (fed/fasted) [2, 13]: 171.60%
- AUC0-t, GMR (fed/fasted) [2, 13]: 170.68%
- Cmax, GMR (fed/fasted) [2, 13]: 107.98%
- Tmax, GMR (fed/fasted) [2, 13]: 235.29%
- increase of Cmax, fed compared to fasted [2, 14]: 8%
- increase of plasma Compound 1 AUC, fed compared to fasted [2, 14]: approximately 70%
- Tmax ([2]; oral, high fat, high calorie meal with 30 mg Compound 1, read-out: delay of Tmax in the fed population): ~3 h
- AUC(0-inf) [2, 15]: 959 ng·h/mL
- AUC(0-t) [2, 15]: 826 ng·h/mL
- Cmax [2, 15]: 119 ng/mL
- Tmax ([2]; po, healthy volunteers, 30 mg single oral dose, 50:50 solid solution capsule, Fasted, read-out: Tmax, untransformed LSM): 2.29 h
- AUC(0-inf) [2, 16]: 1650 ng·h/mL
- AUC(0-t) [2, 16]: 1410 ng·h/mL
- Cmax [2, 16]: 128 ng/mL
- Tmax ([2]; po, healthy volunteers, 30 mg single oral dose, 50:50 solid solution capsule, Fed (high fat, high calorie meal), read-out: Tmax, untransformed LSM): 5.38 h
- solubility ([3]; Captisol in water (40% w/v), aqueous with cosolvent or surfactant or cyclodextrin, thermodynamic from solid, Captisol in water (40% w/v), read-out: Solubility): 0.01 mg/mL (≈ 0.0172 mM)
- Additional Observations ([3]; Captisol in water (40% w/v), overnight): API undissolved overnight even with warming to 60°.
- solubility ([3]; Cavitron W7 HP5 in water (40% w/v)): 0.05 mg/mL (≈ 0.086 mM)
- Additional Observations ([3]; Cavitron W7 HP5 in water (40% w/v), overnight): API undissolved overnight even with warming to 60°.
- Additional Observations ([3]; PEG400/EtOH/Cremophor EL (50/45/5 v/v), prepared 20 mg/mL formulation): A translucent solution with floating fine particles.
- Additional Observations ([3]; PEG400/EtOH/Cremophor EL (70/25/5 v/v), prepared 20 mg/mL formulation): A translucent solution.
- solubility ([3]; PEG400/EtOH/Solutol HS 15 (50/40/10 v/v), organic solvent or mixture, thermodynamic from solid, PEG400/EtOH/Solutol HS 15 (50/40/10 v/v), visually, against 30 mg/mL control solution, read-out: Solubility): ~30 mg/mL (≈ 51.6 mM)
- Additional Observations ([3]; PEG400/EtOH/Solutol HS 15 (50/40/10 v/v), ~30 mg/mL, overnight): few API particles left overnight, did not attempt
- solubility ([3]; PEG400/EtOH/Solutol HS 15 (50/45/5 v/v), organic solvent or mixture, thermodynamic from solid, PEG400/EtOH/Solutol HS 15 (50/45/5 v/v), visually, against 30 mg/mL control solution, read-out: Solubility): ~30 mg/mL (≈ 51.6 mM)
- Additional Observations ([3]; PEG400/EtOH/Solutol HS 15 (50/45/5 v/v), ~30 mg/mL, overnight): API particles left overnight, did not attempt cranberry
- Additional Observations ([3]; PEG400/EtOH/Solutol HS 15 (70/20/10 v/v), 20.4 mg/mL, in cranberry juice): Slow to precipitate with addition to cranberry juice.
- solubility ([3]; PEG400/EtOH/Solutol HS 15 (70/20/10 v/v), organic solvent or mixture, PEG400/EtOH/Solutol HS 15 (70/20/10 v/v), read-out: Solubility): 20.4 mg/mL (≈ 35.1 mM)
- Additional Observations ([3]; PEG400/EtOH/Solutol HS 15 (70/25/5 v/v), 20.0 mg/mL, in cranberry juice): Precipitate forms in cranberry juice.
- solubility ([3]; PEG400/EtOH/Solutol HS 15 (70/25/5 v/v), organic solvent or mixture, PEG400/EtOH/Solutol HS 15 (70/25/5 v/v), read-out: Solubility): 20 mg/mL (≈ 34.4 mM)
- solubility ([3]; PEG400/EtOH/Transcutol P (50/40/10 v/v), organic solvent or mixture, PEG400/EtOH/Transcutol P (50/40/10 v/v), second listing, read-out: Solubility): 20.2 mg/mL (≈ 34.7 mM)
- solubility ([3]; PEG400/EtOH/Transcutol P (50/40/10 v/v), organic solvent or mixture, thermodynamic from solid, PEG400/EtOH/Transcutol P (50/40/10 v/v), visually, against 30 mg/mL control solution, read-out: Solubility): ~30 mg/mL (≈ 51.6 mM)
- Additional Observations ([3]; PEG400/EtOH/Transcutol P (50/40/10 v/v), ~30 mg/mL, overnight): few API particles left overnight, did not attempt
- solubility ([3]; PEG400/EtOH/Transcutol P (50/45/5 v/v), organic solvent or mixture, PEG400/EtOH/Transcutol P (50/45/5 v/v), second listing, read-out: Solubility): 19.9 mg/mL (≈ 34.2 mM)
- solubility ([3]; PEG400/EtOH/Transcutol P (50/45/5 v/v), organic solvent or mixture, PEG400/EtOH/Transcutol P (50/45/5 v/v), visually, against 30 mg/mL control solution, read-out: Solubility): ~30 mg/mL (≈ 51.6 mM)
- Additional Observations ([3]; PEG400/EtOH/Transcutol P (50/45/5 v/v), ~30 mg/mL, overnight): few API particles left overnight, did not attempt
- solubility ([3]; PEG400/Propylene Glycol (50/50 v/v), organic solvent or mixture, PEG400/Propylene Glycol (50/50 v/v), read-out: Solubility): 10.9 mg/mL (≈ 18.7 mM)
- Additional Observations ([3]; PEG400/Propylene Glycol (50/50 v/v), overnight, then addition of cranberry juice): Somewhat dissolved overnight, however, precipitation
- solubility in control vehicle ([3]; control solution of PEG400/EtOH (50/50% v/v) with 30 mg/mL): Compound 1 is not fully soluble in control vehicle. A few
- Days 57-85 Cmin, Mean [4, 17]: 219 ng/mL
- Days 57-85 Cmin, Mean ([4]; AAV patients, Compound 1 + No Prednisone): 177 ng/mL
- Days 57-85 Cmin, Mean ([4]; AAV patients, Compound 1 with or without Prednisone): 204 ng/mL
- absorption ([4]; following the first dose of 30 mg on Day 1, AAV patients): absorbed rapidly
- AUC(0-t) [4, 18]: 526 ng·h/mL
- Cmax [4, 18]: 166 ± 55.2 ng/mL
- Tmax [4, 18]: 2.85 h
- AUC(0-t) [4, 19]: 580 ± 219 ng·h/mL
- Cmax [4, 19]: 188 ± 69 ng/mL
- Tmax [4, 19]: 2.62 h
- AUC(0-t) [4, 17]: 643 ng·h/mL
- Cmax [4, 17]: 214 ng/mL
- Tmax [4, 17]: 2.35 h
- drug-drug interaction ([4]; with concomitant medications prednisone, cyclophosphamide, and rituximab, AAV patients): No significant drug-drug interaction
